# Reference: patent publication US7745493B2, “Methods of treating tardive dyskinesia and other movement disorders” (priority 1998, dated 2010)
# Marks after values point to notes of the source that are not given here.
# Columns and labels:
# [1] = tested on: person with simple tic of the neck; assay: Case Report 5: frequency of simple tic of the neck; assay type: in vivo, human; settings: Case 5
# Description: A person had simple tic of the neck that involved forceful extension and rotation of the neck to the right. The tic had started in the context of therapy of depression with dextroamphetamine and pramipexole, a dopamine agonist drug. The tic occurred from 20-50 times per hour, with greater frequency when they were tired or under stress.
# They were initially treated with 666 mg of acamprosate three times a day. Within 24 hours after the start of acamprosate therapy, the frequency and severity of the tic decreased dramatically, to a rate of less than 5 per hour. The patient often was free of tics completely for 2 to 3 hours after each dose of acamprosate, after which time the tic would very gradually return. The dose was then raised to 666 mg four times a day. On this dose, rates of more than 5 per hour occurred only under unusually stressful circumstances, and there were frequent tic-free periods of 4 hours or more. […] On a second day without acamprosate, the rate of tics was again over 20 per hour.
# […] then added chelated magnesium, at a dosage of 300 mg of elemental magnesium 3 times a day. With magnesium supplementation, the average tic frequency dropped to 6 hour or less. When 666 mg of acamprosate was given three times a day was given together with magnesium 300 mg three times a day, the usual tic-free period after each acamprosate dose increased from approximately 3 hours to approximately 5 hours.
# [2] = tested on: person two with long-standing TD; assay: CPT with conditions (Vigilance) (Case 1); assay type: in vivo, human; settings: ON drug
# From the text: (§1) The following tables report on the results of the neuropsychological tests (Drug I is memantine and Drug II is acamprosate): […]
# [3] = tested on: person two with long-standing TD; assay: Case Report 1: clinical observation of TD with blepharospasm; assay type: in vivo, human; settings: Case 1; for effect on involuntary movements of TD: clinical observation, acamprosate 333 mg four times a day; for cognitive function (energy, attention, concentration): subjective and objective
# Description: Palliative treatment with alprazolam (an anxiolytic and GABA agonist via modulation; dosage 0.25 mg four times a day) and trihexyphenidyl (an anticholinergic antiparkinson drug that inhibits dopamine re-uptake at synapses; dosage 2 mg twice a day) was prescribed by another physician.
# Initially, their other medications were maintained unchanged.
# Nimodipine was discontinued, and the patient was begun on memantine at a dosage of 10 mg twice a day.
# For the following 10 days they added 250 mg three times a day of chelated magnesium.
# [4] = tested on: person one with long-standing TD; assay: Case Report 2: two-sentence memory task; assay type: in vivo, human; settings: Case 2; on acamprosate 666 mg three times daily plus memantine
# Description: The patient was placed on a treatment regime that included administration of 666 mg of acamprosate, three times daily. In this case, acamprosate was added to the patient's regimen, which continued to include memantine. […] Despite past evidence from formal testing that the patient had impaired short-term memory, they performed normally on a two-sentence memory task, which involved testing the patient's recall ability using two sentences containing 13 separate details. On the two-sentence memory task, within three attempts the patient was able to recall 9 details and, using a multiple choice format, was able to recall a total of 11 details. Recall of 9 details on the third attempt would be normal for a middle-aged adult, let alone one […].
# [5] = in vivo; cited from earlier work
# [6] = tested on: person two with long-standing TD; assay: Simple Reaction Time (neuropsychological test, Case 1); assay type: in vivo, human; settings: lower score better
# Description: On acamprosate, the patient was able to sustain concentration for prolonged periods. […] The patient's cognitive improvement was also assessed using formal neuropsychological measures. The patient was tested while on the drug, then taken off of the drug and tested two days later. On the drug, the patient was able to recall 13 of the 15 items after a short delay as well as 13 of the 15 items after a long delay, as measured by the Rey Auditory Verbal Learning Test. This was in comparison to the patient's ability while off the drug to recall only 7 of the 15 items after a short delay as well as 8 of the items after a long delay in tests performed. In addition, the patient was able to recognize all 15 of the items while on acamprosate but while off the drug (and while having been off of memantine for over 2 months) the patient could only recognize 10 of the items. The order of testing would give the advantage of familiarity to the off-drug condition. Nonetheless, the difference in favor of the on-drug condition was substantial.
# The tests showing such results included Simple Reaction Time, the Trail Making Test (both parts) and the Paced Auditory Serial Addition Test (PASAT). Choice reaction time, a test requiring both basic attention and concentration on a specific task that must be kept in mind, was slightly better on acamprosate, consistent with the hypothesis that general cognitive function, as opposed to simple attention, improves with acamprosate treatment.
# as §1
# [7] = tested on: 3,338 patients; settings: alcoholism treatment; cited from earlier work
# [8] = tested on: person two with long-standing TD; assay: Verbal Fluency (Case 1); assay type: in vivo, human; settings: ON drug
# From the text: as §1
# [9] = tested on: person two with long-standing TD; assay: Rey-Osterrieth Complex Figure (Case 1); assay type: in vivo, human; settings: ON drug, higher score better
# From the text: as §1
# [10] = tested on: person two with long-standing TD; assay: California Verbal Learning Test 16-items (Case 1); assay type: in vivo, human; settings: ON drug
# From the text: as §1
# [11] = tested on: person two with long-standing TD; assay: Digit Symbol (Case 1); assay type: in vivo, human; settings: ON drug, higher score better
# From the text: as §1
# [12] = tested on: person two with long-standing TD; assay: Grip Strength (Case 1); assay type: in vivo, human; settings: ON drug, higher score better
# From the text: as §1
# [13] = tested on: person two with long-standing TD; assay: Figural Fluency (Case 1); assay type: in vivo, human; settings: ON drug
# From the text: as §1
smiles,measurement,setting,value
"CC(=O)NCCCS(=O)(=O)O [acamprosate, calcium N-acetylhomotaurinate]",tic-free periods,[1]; 666 mg four times a day,≥ 4 h
same,tic rate,[1]; 666 mg three times a day,less than 5 per hour
same,time to decrease of tic frequency and severity,[1]; after start of therapy,≤ 24 h
same,CPT Correct,[2]; higher score better,100/100
same,CPT Commission errors,[2]; lower score better,0
same,CPT Omission errors,[2]; lower score better,0
same,CPT Wrong,[2]; lower score better,3
same,involuntary movements two months after reinstitution,[3],absent except for very mild movements during times of stress
same,"time to recovery of energy, stamina, concentration and memory after re-instituting treatment",[3],Within two days
same,time able to read a book,[3]; 333 mg four times a day,over an hour at a time
same,effect on involuntary movements of TD,[3]; memantine 10 mg twice a day,became imperceptible
same,fatigue,[3]; on the acamprosate regime,significantly decreased
same,"cognitive function (energy, attention, concentration)",[3],improved significantly
same,details recalled within three attempts (of 13 details),[4],9
same,total details recalled using multiple choice format (of 13 details),[4],11
same,absorption from the GI tract,[5],irregularly absorbed
same,Simple Reaction Time 500 Green,[6]; ON drug,286 ms
same,Simple Reaction Time 500 Red,[6]; ON drug,272 ms
same,Simple Reaction Time 1500 Green,[6]; ON drug,261 ms
same,Simple Reaction Time 1500 Red,[6]; ON drug,264 ms
same,side effects in controlled trials,[7],no severe medical or neurological side effects
CC12CC3CC(C)(C1)CC(N)(C3)C2 [memantine],side effects at reduced dose,[3]; 5 mg three times a day,without perceptible side effects
same,time to reduction of involuntary movements,[3]; 10 mg twice a day,≤ 24 h
same,effect on involuntary movements of TD,[3]; memantine 10 mg twice a day,substantially greater degree than had been observed with nimodipine
same,adverse effects,"[3]; nimodipine 30 mg four times a day, memantine 10 mg twice a day",a sense of mild intoxication
same,"cognitive function (energy, attention, concentration)",[3],"improved energy, attention, and concentration"
same,Verbal Fluency Category (Animals) Per,[8],Per = 0^b
same,Verbal Fluency Letter (CFL) Per,[8],Per = 2^b
same,Verbal Fluency Category (Animals) Total,[8]; higher score better,Total = 25
same,Verbal Fluency Letter (CFL) Total,[8]; higher score better,Total = 70
same,Rey-Osterrieth Complex Figure Copy Organization,[9],5
same,Rey-Osterrieth Complex Figure Copy Presence & Accuracy,[9],20
same,Rey-Osterrieth Complex Figure Delayed Retention,[9],−11.1
same,Rey-Osterrieth Complex Figure Immediate Retention,[9],−55
same,CVLT List A 1-5 total (80 max),[10]; higher score better,53
same,CVLT List A Trial 1,[10]; higher score better,7
same,CVLT List A Trial 5,[10]; higher score better,13
same,CVLT List B,[10]; higher score better,7
same,CVLT Long-Delay Cued Recall,[10]; higher score better,15
same,CVLT Long-Delay Free Recall,[10]; higher score better,12
same,CVLT Recognition Hits,[10]; higher score better,16
same,CVLT Short-Delay Cued Recall,[10]; higher score better,13
same,CVLT Short-Delay Free Recall,[10]; higher score better,10
same,CVLT False Positives,[10]; lower score better,3
same,CVLT Intrusions,[10]; lower score better,6
same,CVLT Perseverations,[10]; lower score better,23
same,Digit Symbol,[11],34
same,Simple Reaction Time 500 Green,[6],284 ms
same,Simple Reaction Time 500 Red,[6],266 ms
same,Simple Reaction Time 1500 Green,[6],212 ms
same,Simple Reaction Time 1500 Red,[6],224 ms
same,Grip Strength DH,[12],DH = 17.7
same,Grip Strength NDH,[12],NDH = 21.7
same,Figural Fluency Unique Designs,[13]; higher score better,124
same,Figural Fluency Perseverations,[13]; lower score better,8
